The record followed here is US12110288B2, “MASP-2 inhibitors and methods of use” (Omeros Corporation, priority 2019, dated 2024).

pKi: −log10 of the molar value. Counter-ions that a name gives are not always drawn.

For this assay, the target named is T1, MASP-2 (CCP1-CCP2-SP) (Homo sapiens, UniProt O00187).
T1 construct: 15 μL of Enzyme MASP-2 (CCP1-CCP2-SP) in Assay Buffer
Put plainly: Enzymatic Assay for MASP-2. Type of assay: biochemical. To be noted: fluorogenic substrate based on C2 cleavage site, room temperature, 20 mM HEPES pH 7.4. The method, boiled down:
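Fluorogenic substrate modelled on the C2 cleavage site, run at room temperature in 20 mM HEPES pH 7.4, 140 mM NaCl, 0.1% Tween 20; compounds were added from DMSO serial dilutions before enzyme and substrate. Reactions ran 20 min and were stopped with 0.1 M acetic acid before fluorescence was read. % activity was normalised to DMSO-only and no-enzyme controls; IC50 was taken as Ki, with tight- or slow-binding inhibitors handled separately.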

For orientation: pKi means the negative decadic logarithm of the Ki, by convention in mol/L. High values mean a small Ki, low ones a large Ki.

T1 sequence (O00187 445-686 limits assumed): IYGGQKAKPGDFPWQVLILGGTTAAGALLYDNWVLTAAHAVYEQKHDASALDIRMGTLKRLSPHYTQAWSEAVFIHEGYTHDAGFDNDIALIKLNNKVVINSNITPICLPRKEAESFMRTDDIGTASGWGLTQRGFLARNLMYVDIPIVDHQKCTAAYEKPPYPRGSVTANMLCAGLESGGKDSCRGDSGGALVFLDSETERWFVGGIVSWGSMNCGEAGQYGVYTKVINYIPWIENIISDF
T1 sequence (O00187 298-444 partner limits assumed): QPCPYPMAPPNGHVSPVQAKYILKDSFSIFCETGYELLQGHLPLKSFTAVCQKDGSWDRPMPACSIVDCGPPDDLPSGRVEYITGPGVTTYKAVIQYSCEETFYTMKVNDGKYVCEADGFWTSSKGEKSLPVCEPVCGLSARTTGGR

`O=C(Cn1c(-c2ccccc2)cnc(NCc2ccc(Cl)cc2)c1=O)NCc1cc2cnccc2[nH]1` [Compound 73, N-((1H-Pyrrolo[3,2-c]pyridin-2-yl)methyl)-2-(3-((4-chlorobenzyl)amino)-2-oxo-6-phenylpyrazin-1(2H)-yl)acetamide trifluoroacetate] showed a pKi greater than 6.30.

As to `CC(C)(C)OC(=O)N1CC(n2cc(-c3cnc(NCCc4ccccc4)c(=O)n3CC(=O)NCc3cc4cnccc4[nH]3)cn2)C1` [Compound 111, tert-Butyl 3-(4-(1-(2(((1H-pyrrolo[3,2-c]pyridin-2-yl)methyl)amino)-2-oxoethyl)-6-oxo-5-(phenethylamino)-1,6-dihydropyrazin-2-yl)-1H-pyrazol-1-yl)azetidine-l-carboxylate], the pKi was greater than 6.30.

The molecule `O=C(Cn1c(-c2ccccc2)cnc(NCC2(c3ccccc3)CCC2)c1=O)NCc1cc2cnccc2[nH]1` [Compound 56, N-((1H-Pyrrolo[3,2-c]pyridin-2-yl)methyl)-2-(2-oxo-6-phenyl-3-(((1-phenylcyclobutyl)methyl)amino)pyrazin-1(2H)-yl)acetamide trifluoroacetate] showed a negative logarithm of the Ki (pKi) greater than 6.30.

Molecule `O=C(Cn1c(-c2ccccc2)cnc(NCCc2ccc(F)cc2)c1=O)NCc1cc2cnccc2[nH]1` [Compound 146, N-((1H-Pyrrolo[3,2-c]pyridin-2-yl)methyl)-2-(3-((4-fluorophenethyl)amino)-2-oxo-6-phenylpyrazin-1(2H)-yl)acetamide] showed a pKi greater than 6.30.

The molecule `COCCNc1ncc(-c2ccccc2)n(CC(=O)NCc2cc3cnccc3[nH]2)c1=O` [Compound 120, N-((1H-Pyrrolo[3,2-c]pyridin-2-yl)methyl)-2-(3-((2-methoxyethyl)amino)-2-oxo-6-phenylpyrazin-1(2H)-yl)acetamide trifluoroacetate] had a pKi greater than 6.30.

Molecule `Cc1cccc(CNc2ncc(-c3ccccc3)n(CC(=O)NCc3cc4cnccc4[nH]3)c2=O)c1` [Compound 155, N-((1H-Pyrrolo[3,2-c]pyridin-2-yl)methyl)-2-(3-((3-methylbenzyl)amino)-2-oxo-6-phenylpyrazin-1(2H)-yl)acetamide] had a pKi greater than 6.30.

`Cc1nc(N)ccc1CNC(=O)Cn1c(-c2cccnc2)cnc(NCCc2ccccc2)c1=O` [Compound 18, N-((6-amino-2-methylpyridin-3-yl)methyl)-2-(2-oxo-3-(phenethylamino)-6-(pyridin-3-yl)pyrazin-1(2H)-yl)acetamide trifluoroacetate] gave a pKi greater than 6.30.

`CC(C)n1cc(-c2cnc(NCCc3ccccc3)c(=O)n2CC(=O)NCc2cc3cnccc3[nH]2)cn1` [Compound 103, N-((1H-Pyrrolo[3,2-c]pyridin-2-yl)methyl)-2-(6-(1-isopropyl-1H-pyrazol-4-yl)-2-oxo-3-(phenethylamino)pyrazin-1(2H)-yl)acetamide] showed a pKi greater than 6.30.

As to `Nc1nc2ccc(CNC(=O)Cn3c(Br)cnc(NCCc4ccccc4)c3=O)cc2[nH]1` [Compound 8, N-((2-Amino-1H-Benzo[d]Imidazol-6-yl)Methyl)-2-(6-Bromo-2-Oxo-3-(Phenethylamino)Pyrazin-1(2H)-yl)Acetamide], the pKi is greater than 6.30.

Regarding `O=C(Cn1c(-c2cccc(C(O)C(F)(F)F)c2)cnc(NCCc2ccccc2)c1=O)NCc1cc2cnccc2[nH]1` (centres unmarked) [Compound 97, N-((1H-Pyrrolo[3,2-c]pyridin-2-yl)methyl)-2-(2-oxo-3-(phenethylamino)-6-(3-(2,2,2-trifluoro-1-hydroxyethyl)phenyl)pyrazin-1(2H)-yl)acetamide], the pKi was greater than 6.30.

Take `Nc1nc2ccc(CNC(=O)Cn3c(-c4cccc(C(=O)O)c4)cnc(NCCc4ccccc4)c3=O)cc2[nH]1` [Compound 16]: the pKi is greater than 6.30.

Regarding `Cc1nc(N)ccc1CNC(=O)Cn1c(-c2ccccc2)c(Cl)nc(NC2COC2c2ccccc2)c1=O` (centres unmarked) [Compound 42], the pKi is 5.60 to 6.30.

In the case of `CNc1ncc(-c2ccccc2)n(CC(=O)NCc2ccc(N)nc2C)c1=O` [Compound 45, N-((6-Amino-2-methylpyridin-3-yl)methyl)-2-(3-(methylamino)-2-oxo-6-phenylpyrazin-1(2H)-yl)acetamide], the pKi was greater than 6.30.

In turn, `COc1ccccc1CCNc1ncc(-c2ccccc2)n(CC(=O)NCc2cc3cnccc3[nH]2)c1=O` [Compound 141, N-((1H-Pyrrolo[3,2-c]pyridin-2-yl)methyl)-2-(3-((2-methoxyphenethyl)amino)-2-oxo-6-phenylpyrazin-1(2H)-yl)acetamide] had a pKi greater than 6.30.

As to `Cc1cc(Cl)cc(CNC(=O)Cn2c(=O)c(NCCc3ccccc3)cn(C)c2=O)c1O` [Compound 35, trifluoroacetate], the pKi is 5.00 to 5.60.

Take `Cc1nc(N)ccc1CNC(=O)Cn1c(C)ncc(NS(=O)(=O)Cc2ccccc2)c1=O` [Compound 1, N-((6-Amino-2-Methylpyridin-3-yl)Methyl)-2-(2-Methyl-6-Oxo-5-((Phenylmethyl)Sulfonamido)Pyrimidin-1(6H)-yl)Acetamide, Trifluoro Acetate]: the pKi was less than 5.00.

`CCOC(=O)CNc1ncc(-c2ccccc2)n(CC(=O)NCc2cc3cnccc3[nH]2)c1=O` [Compound 117, Ethyl (4-(2-(((1H-pyrrolo[3,2-c]pyridin-2-yl)methyl)amino)-2-oxoethyl)-3-oxo-5-phenyl-3,4-dihydropyrazin-2-yl)glycinate] showed a pKi greater than 6.30.

Regarding `Cc1nn(C)cc1-c1cnc(NCCc2ccccc2)c(=O)n1CC(=O)NCc1cc2cnccc2[nH]1` [Compound 104, N-((1H-Pyrrolo[3,2-c]pyridin-2-yl)methyl)-2-(6-(1,3-dimethyl-1H-pyrazol-4-yl)-2-oxo-3-(phenethylamino)pyrazin-1(2H)-yl)acetamide], the pKi is greater than 6.30.

`Cc1nc(N)ccc1CNC(=O)Cn1c(=O)c(NS(=O)(=O)Cc2ccccc2)cn(C)c1=O` [Compound 36, N-((6-Amino-2-Methylpyridin-3-yl)Methyl)-2-(3-Methyl-2,6-Dioxo-5-((Phenylmethyl)Sulfonamido)-3,6-Dihydropyrimidin-1(2H)-yl)Acetamide, Trifluoroacetate] showed a pKi of less than 5.00.

`Cn1cc(NCCc2ccccc2)c(=O)n(CC(=O)NCc2cc3cnccc3[nH]2)c1=O` [Compound 161, N-((1H-Pyrrolo[3,2-c]Pyridin-2-yl)Methyl)-2-(3-Methyl-2,6-Dioxo-5-(Phenethylamino)-3,6-Dihydropyrimidin-1(2H)-yl)Acetamide] showed a pKi greater than 6.30.

Molecule `O=C(Cn1c(-c2cc(F)ccc2F)cnc(NCCc2ccccc2)c1=O)NCc1cc2cnccc2[nH]1` [Compound 107, N-((1H-Pyrrolo[3,2-c]pyridin-2-yl)methyl)-2-(6-(2,5-difluorophenyl)-2-oxo-3-(phenethylamino)pyrazin-1(2H)-yl)acetamide] gave a pKi greater than 6.30.

For the molecule `Cc1nc(N)ccc1CNC(=O)Cn1c(Cc2ccccc2)cnc(NCCc2ccccc2)c1=O` [Compound 19, N-((6-amino-2-methylpyridin-3-yl)methyl)-2-(6-benzyl-2-oxo-3-(phenethylamino)pyrazin-1(2H)-yl)acetamide trifluoroacetate], the pKi is greater than 6.30.

`O=C(Cn1c(-c2ccccc2)cnc(NC(CO)Cc2ccccc2)c1=O)NCc1cc2cnccc2[nH]1` (centres unmarked) [Compound 49, N-((1H-Pyrrolo[3,2-c]pyridin-2-yl)methyl)-2-(3-((1-hydroxy-3-phenylpropan-2-yl)amino)-2-oxo-6-phenylpyrazin-1(2H)-yl)acetamide trifluoroacetate] showed a pKi greater than 6.30.

In the case of `O=C(Cn1c(-c2ccccc2)cnc(NCCc2cccc(F)c2)c1=O)NCc1cc2cnccc2[nH]1` [Compound 145, N-((1H-Pyrrolo[3,2-c]pyridin-2-yl)methyl)-2-(3-((3-fluorophenethyl)amino)-2-oxo-6-phenylpyrazin-1(2H)-yl)acetamide], the pKi was greater than 6.30.

In the case of `Cc1nccc2[nH]c(CNC(=O)Cn3c(-c4ccccc4)cnc(NCCc4ccccc4)c3=O)cc12` [Compound 72, trifluoroacetate], the pKi is greater than 6.30.

For `Cc1nc(N)ccc1CNC(=O)Cn1c(-c2cccc(CO)c2)cnc(NCCc2ccccc2)c1=O` [Compound 32, N-((6-Amino-2-Methylpyridin-3-yl)Methyl)-2-(6-(3-(Hydroxymethyl)Phenyl)-2-Oxo-3-(Phenethyl Amino)Pyrazin-1(2H)-yl)Acetamide], the pKi was greater than 6.30.

Molecule `O=C(Cn1c(-c2ccccc2)cnc(NCCCc2ccccc2)c1=O)NCc1cc2cnccc2[nH]1` [Compound 48, N-((1H-Pyrrolo[3,2-c]pyridin-2-yl)methyl)-2-(2-oxo-6-phenyl-3-((3-phenylpropyl)amino)pyrazin-1(2H)-yl)acetamide trifluoroacetate] gave a pKi greater than 6.30.

In turn, `Cc1nc(N)ccc1CNC(=O)Cn1c(-c2ccccc2Cl)cnc(NCCc2ccccc2)c1=O` [Compound 29] showed a pKi greater than 6.30.

Regarding `O=C(Cn1c(-c2ccccc2)cnc(N2CCC2)c1=O)NCc1cc2cnccc2[nH]1` [Compound 149, N-((1H-Pyrrolo[3,2-c]pyridin-2-yl)methyl)-2-(3-(azetidin-1-yl)-2-oxo-6-phenylpyrazin-1(2H)-yl)acetamide], the pKi is greater than 6.30.

In turn, `O=C(Cn1c(-c2ccccc2)cnc(NCc2ccc(F)cc2)c1=O)NCc1cc2cnccc2[nH]1` [Compound 147, N-((1H-Pyrrolo[3,2-c]Pyridin-2-yl)Methyl)-2-(3-((4-Fluorobenzyl)Amino)-2-Oxo-6-Phenylpyrazin-1(2H)-yl)Acetamide] gave a pKi greater than 6.30.

As to `CNc1nc(Cl)c(-c2ccccc2)n(CC(=O)NCc2ccc(N)nc2C)c1=O` [Compound 38], the pKi is 5.60 to 6.30.

With `CC(C)Nc1cnc(NCCc2ccccc2)c(=O)n1CC(=O)NCc1cc2cnccc2[nH]1` [Compound 160], the pKi was 5.00 to 5.60.
